Patent US8853277B2, “Nitroxide therapy for the treatment of von Hippel—Lindau disease (VHL) and renal clear cell carcinoma (RCC)” (The United States of America, as represented by the …, priority 2009, dated 2014)

Tests used:
[1] = test system: 786-0 (VHL−/−) cells; assay: 786-0 (VHL−/−) subcutaneous tumor growth in SCID/BEIGE mice, Tempol in drinking water; format: in vivo; conditions: 2 mM in drinking water
Procedure: The tumor inhibitory effect of stable nitroxides were studied in vivo using mice with mutations in the Prkdc gene (SCID, which is associated severe combined immunodeficiency), and bg (BEIGE) gene. Twenty female SCID/BEIGE mice (C.B-Igh-1b/GbmsTac-Prkdc^scid-Lyst^bg N7 (CBSCBG) from Taconic (Hudson, N.Y.)) were injected with about 8 million 786-0 (VHL−/−) cells subcutaneously on the right flank. Starting on the day of injection, Tempol was diluted in PBS and added twice a week to the water bottle feeding a group of ten injected mice. The final concentration of Tempol in water was 2 mM. The control group of ten remaining mice received an equivalent amount of PBS in water twice a week. The volume of the tumors and weight of the mice were recorded once a week for up to 100 days. When the control group tumor volume reached 1 cm^3, tumors of 8 mice maintained as controls were harvested. At the same time, 4 of the animals maintained on Tempol were harvested and fast-frozen or paraffin embedded for further experiments. The average tumor volume as a function of time for each group is depicted in FIG. 2.

[2] = test system: HIF2 α; assay: HIF-2α levels in eight other cell lines from patients with VHL mutations; format: cell-based, human; conditions: Tempol treatment
[3] = test system: HIF-2α; assay: Western blot of HIF-2α in nuclear proteins of 786-0 RCC cells; format: cell-based, human; conditions: 786-0 cells, 5 mM, two to four hours, compared to Tempol-H or growth medium (control)
Procedure: The human sporadic RCC cell line 786-0 was obtained from the American Tissue Culture Collection (ATCC) (Manassas, Va.). This cell line contains a single inactivated VHL allele, produces no VHL protein, is deficient for HIF-la expression, and constitutively expresses HIF-2α. Gnarra et al., Nat. Genet., 7: 85-90 (1994) and Maxwell et al., Nature, 399: 271-275 (1999). Cultures of 786-0 cells were pre-incubated for one hour in KREB's buffer (115 mM NaCl, 5.9 mM KCl, 1.2 mM MgCl2, 1.2 mM NaH2PO4, 1.2 mM Na2SO4, 2.5 mM CaCl2, and 25 mM NaHCO3) at pH 7.4 and with 4.5 g/L of glucose. Cells were then treated for two to four hours with (i) Tempol (5 mM) obtained from Sigma Aldrich (St. Louis, Mo.), (ii) its non-functional hydroxylamine (protonated, reduced) variant: 1,4-dihydroxy-2,2,6,6-tetramethylpiperidine (Tempol-H) (5 mM) (Sigma Aldrich), or (iii) growth medium as a negative control. Cells were harvested, nuclear protein extractions performed, and protein concentrations were measured by BCA assay from Pierce (Rockford, Ill.). Aliquots of extracted nuclear proteins (20 μg) were loaded in a 7.5% polyacrylamide gel and separated by sodium dodecyl sulfate polyacrylamide gel electrophoresis (SDS-PAGE). Proteins were transferred to PVDF membranes, which were then blocked for one to sixteen hours in a solution of 5% dry milk. […]

[4] = test system: 786-0 cells (VHL−/−); assay: 786-0 (VHL−/−) subcutaneous tumor growth in SCID/BEIGE mice, Tempol in chow; format: in vivo; conditions: 10 mg/g of food, after ten weeks, compared to control mice fed normal chow (P<0.05)
Procedure: Twenty female SCID/BEIGE mice were injected with 786-0 cells (VHL−/−) subcutaneously on the right flank, as described in Example 2. Starting on the day of injection, a control group of ten injected mice were fed standard chow (NIH-031, Zeigler Brothers, Inc. (Gardners, Pa.)) and a group ten injected mice received chow supplemented with Tempol. The Tempol diet supplement was made by a cold press technique from powdered Tempol uniformly mixed with bacon-flavored mouse chow (Bio-Serv Inc. (Frenchtown, N.J.)) providing a Tempol concentration of 10 mg/g of food. Bacon-flavored chow without Tempol was also added to the control diet. The volume of the tumors and the weight of the mice were recorded once a week for more than ten weeks. Tumor volumes as a function of time are depicted in FIG. 3. When the tumor volumes of the control group reached 1 cm^3, the tumors of all mice were harvested and fast-frozen or paraffin embedded for further experiments.

CC1(C)CC(O)CC(C)(C)N1[O] [Tempol, 4-hydroxy-2,2,6,6-tetramethylpiperidine-1-oxyl]
tumor size when sacrificed at the 80 day time point ([1]; 80 days, versus control animals): smaller tumors
average tumor volume as compared to the control group ([1]; SCID/BEIGE mice, up to 100 days): markedly lower average tumor volume
tumor size at 100 days ([1]; four mice maintained up to 100 days): quite small
HIF2 α levels [2]: reduced HIF2 α levels significantly
HIF-2α levels [3]: significantly reduced
tumor growth [4]: reduced by a statistically significant amount
